Results published in ChEMBL document CHEMBL1201862, “PubChem BioAssay data set” (2004).
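These data come from cells grown in 96-well plates and exposed to compound for 48 hours at five concentrations. GI50 marks 50% less growth.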 Active and inactive are the calls of the source. No stated cut-off is given here; in the data, active = GI50 up to about 1.1 µM and inactive = higher.

Key:
Assay in all cases: NCI-60 cell line screen, 48 h
HCT-116 = test system: HCT-116
RPMI-8226 = test system: RPMI-8226
OVCAR-4 = test system: OVCAR-4
OVCAR-5 = test system: OVCAR-5
A549 = test system: A549
HOP-62 = test system: HOP-62
CAKI-1 = test system: CAKI-1
SF-268 = test system: SF-268
NCI-H522 = test system: NCI-H522
T47D = test system: T47D
NCI/ADR-RES = test system: NCI/ADR-RES
DU-145 = test system: DU-145
SNB-75 = test system: SNB-75
OVCAR-8 = test system: OVCAR-8
SNB-19 = test system: SNB-19
SF-539 = test system: SF-539
IGROV-1 = test system: IGROV-1
COLO 205 = test system: COLO 205
SK-MEL-5 = test system: SK-MEL-5
SK-MEL-28 = test system: SK-MEL-28
BT-549 = test system: BT-549
M14 = test system: M14
HCC 2998 = test system: HCC 2998
HCT-15 = test system: HCT-15
NCI-H226 = test system: NCI-H226
SK-OV-3 = test system: SK-OV-3
786-0 = test system: 786-0
PC-3 = test system: PC-3
SN12C = test system: SN12C
ACHN = test system: ACHN
RXF 393 = test system: RXF 393
UACC-257 = test system: UACC-257
Hs-578T = test system: Hs-578T
CCRF-CEM = test system: CCRF-CEM
EKVX = test system: EKVX
NCI-H23 = test system: NCI-H23
SR = test system: SR
LOX IMVI = test system: LOX IMVI
HT-29 = test system: HT-29
NCI-H460 = test system: NCI-H460
MDA-MB-231 = test system: MDA-MB-231
OVCAR-3 = test system: OVCAR-3
MDA-MB-435 = test system: MDA-MB-435
U-251 = test system: U-251
K562 = test system: K562
UO-31 = test system: UO-31
HOP-92 = test system: HOP-92
HL-60 = test system: HL-60
SK-MEL-2 = test system: SK-MEL-2
MCF7 = test system: MCF7
UACC-62 = test system: UACC-62
KM12 = test system: KM12
MOLT-4 = test system: MOLT-4
SF-295 = test system: SF-295
SW-620 = test system: SW-620
TK-10 = test system: TK-10
Malme-3M = test system: Malme-3M
A498 = test system: A498
MDA-N = test system: MDA-N

Measured: GI50

O=C1c2ccccc2C(=O)c2c1nc1ccccc1c2-c1cncc(-c2c3c(nc4ccccc24)C(=O)c2ccccc2C3=O)c1
inactive: HCT-116 4.17 µM | OVCAR-4 30.9 µM | OVCAR-5 50.2 µM | A549 3.29 µM | HOP-62 6.56 µM | CAKI-1 9.84 µM | SF-268 6.08 µM | NCI-H522 1.95 µM | T47D 2.33 µM | NCI/ADR-RES 4.13 µM | DU-145 4.09 µM | SNB-75 5.69 µM | OVCAR-8 1.52 µM | SNB-19 23.8 µM | SF-539 6.46 µM | COLO 205 2.85 µM | SK-MEL-5 1.29 µM | SK-MEL-28 12.4 µM | BT-549 11.4 µM | M14 3.18 µM | HCC 2998 18.5 µM | NCI-H226 5.87 µM | SK-OV-3 > 77.1 µM | 786-0 9.82 µM | PC-3 2.15 µM | SN12C 3.98 µM | ACHN 4.08 µM | RXF 393 12.1 µM | UACC-257 8.63 µM | Hs-578T 3.69 µM | EKVX 3.85 µM | NCI-H23 1.18 µM | SR 1.53 µM | LOX IMVI 1.67 µM | HT-29 8.49 µM | NCI-H460 2.43 µM | MDA-MB-231 9.31 µM | OVCAR-3 5.7 µM | MDA-MB-435 1.83 µM | U-251 8 µM | K562 1.31 µM | UO-31 1.55 µM | HOP-92 4.32 µM | HL-60 1.75 µM | SK-MEL-2 8.45 µM | MCF7 5.19 µM | UACC-62 5.65 µM | KM12 3.61 µM | SF-295 8.32 µM | SW-620 6.15 µM | TK-10 37.3 µM | Malme-3M 11.9 µM | A498 9.18 µM
active: RPMI-8226 0.361 µM | IGROV-1 0.0596 µM | CCRF-CEM 0.562 µM | MOLT-4 0.418 µM
1.24 µM: HCT-15

COc1cc2c(/C=C3/C(=O)Nc4ccc(Cl)cc43)c(Cl)n(Cc3ccccc3)c2cc1C
inactive: HCT-116 3.81 µM | RPMI-8226 2.51 µM | OVCAR-4 1.95 µM | OVCAR-5 2.51 µM | A549 3.27 µM | HOP-62 2.11 µM | CAKI-1 2.97 µM | SF-268 6.19 µM | NCI-H522 3.18 µM | T47D 3.17 µM | NCI/ADR-RES 3.86 µM | DU-145 3.9 µM | SNB-75 2.04 µM | OVCAR-8 2.59 µM | SNB-19 3.1 µM | SF-539 2.94 µM | IGROV-1 3.29 µM | COLO 205 2.41 µM | SK-MEL-5 3.32 µM | SK-MEL-28 2.39 µM | BT-549 7.85 µM | M14 4.19 µM | NCI-H226 2.81 µM | SK-OV-3 1.74 µM | 786-0 2.59 µM | PC-3 5.89 µM | SN12C 2.59 µM | ACHN 2.41 µM | RXF 393 2.31 µM | UACC-257 6.34 µM | Hs-578T 4.56 µM | CCRF-CEM 2.89 µM | NCI-H23 2.84 µM | SR 2.72 µM | LOX IMVI 3.57 µM | HT-29 8.26 µM | NCI-H460 3.3 µM | MDA-MB-231 2.48 µM | OVCAR-3 1.98 µM | MDA-MB-435 2.43 µM | U-251 2.3 µM | K562 3.14 µM | UO-31 2.51 µM | HOP-92 5.51 µM | HL-60 3.93 µM | SK-MEL-2 6.21 µM | MCF7 5 µM | UACC-62 3.08 µM | KM12 2.33 µM | MOLT-4 2.26 µM | SF-295 2.81 µM | SW-620 6.73 µM | TK-10 1.8 µM | Malme-3M 2.22 µM | A498 2.65 µM
4.01 µM: HCT-15

COc1c(C)c(C/C=C(\C)CCCC(C)CCCC(C)CCCC(C)C)c(OC)c2ccccc12 (stereo not given)
inactive: HCT-116 > 100 µM | RPMI-8226 > 100 µM | OVCAR-4 > 100 µM | OVCAR-5 > 100 µM | A549 > 100 µM | CAKI-1 > 100 µM | SF-268 > 100 µM | MDA-N > 100 µM | NCI-H522 > 100 µM | NCI/ADR-RES > 100 µM | DU-145 > 100 µM | SNB-75 > 100 µM | OVCAR-8 > 100 µM | SNB-19 > 100 µM | SF-539 > 100 µM | IGROV-1 > 100 µM | COLO 205 > 100 µM | SK-MEL-5 > 100 µM | BT-549 > 100 µM | M14 > 100 µM | HCC 2998 > 100 µM | SK-OV-3 > 100 µM | 786-0 > 100 µM | PC-3 > 100 µM | SN12C > 100 µM | ACHN > 100 µM | RXF 393 > 100 µM | UACC-257 > 100 µM | Hs-578T > 100 µM | CCRF-CEM > 100 µM | EKVX > 100 µM | NCI-H23 > 100 µM | SR > 100 µM | LOX IMVI > 100 µM | HT-29 > 100 µM | NCI-H460 > 100 µM | MDA-MB-231 > 100 µM | OVCAR-3 > 100 µM | MDA-MB-435 > 100 µM | U-251 > 100 µM | K562 > 100 µM | UO-31 > 100 µM | HOP-92 > 100 µM | SK-MEL-2 > 100 µM | MCF7 > 100 µM | UACC-62 > 100 µM | KM12 > 100 µM | MOLT-4 > 100 µM | SF-295 > 100 µM | SW-620 > 100 µM | TK-10 > 100 µM
> 100 µM: HCT-15

Nc1ccc2c(SCCSc3c4ccccc4nc4cc(N)ccc34)c3ccccc3nc2c1
inactive: HCT-116 57.4 µM | RPMI-8226 > 100 µM | OVCAR-4 > 100 µM | OVCAR-5 > 100 µM | A549 > 100 µM | HOP-62 > 100 µM | CAKI-1 > 100 µM | SF-268 > 100 µM | NCI-H522 > 100 µM | T47D > 100 µM | NCI/ADR-RES > 100 µM | DU-145 > 100 µM | SNB-75 > 100 µM | OVCAR-8 > 100 µM | SNB-19 > 100 µM | SF-539 > 100 µM | IGROV-1 > 100 µM | COLO 205 > 100 µM | SK-MEL-5 > 100 µM | SK-MEL-28 > 100 µM | BT-549 > 100 µM | M14 > 100 µM | NCI-H226 > 100 µM | SK-OV-3 > 100 µM | 786-0 > 100 µM | PC-3 > 100 µM | SN12C > 100 µM | ACHN 55.7 µM | UACC-257 > 100 µM | Hs-578T > 100 µM | CCRF-CEM 38.5 µM | EKVX > 100 µM | NCI-H23 94.2 µM | SR 23 µM | LOX IMVI > 100 µM | HT-29 > 100 µM | NCI-H460 > 100 µM | MDA-MB-231 > 100 µM | OVCAR-3 > 100 µM | MDA-MB-435 > 100 µM | U-251 49.3 µM | K562 38.6 µM | UO-31 > 100 µM | HOP-92 > 100 µM | SK-MEL-2 > 100 µM | MCF7 > 100 µM | UACC-62 > 100 µM | KM12 > 100 µM | MOLT-4 15.7 µM | SF-295 > 100 µM | SW-620 > 100 µM | TK-10 > 100 µM | Malme-3M > 100 µM
> 100 µM: HCT-15
